We go through ten compounds from patent US12029716B2, “Derivatives of korormicin useful as antibiotics” (Viotika Life Sciences Inc., priority 2015, dated 2024).

Broadly, the Ki is the equilibrium dissociation constant of an inhibitor or competing ligand from its target. The solubility is the concentration that dissolves in the medium under given conditions.

The target of data set [1] is T1, Na^+-NQR (Vibrio cholerae serotype O1, UniProt Q9KPS2).
T1 construct: being placed in its native membrane; endogenous in cells; sub-bacterial membrane vesicles made by French press
Nature of the data set: Na+-NQR activity (dNADH oxidation) in sub-bacterial V. cholerae vesicles. The format is biochemical.

In data set [2] the target is Na^+-NQR. The settings on record: cited from earlier work.
For the next data set, the system named is Chlamydia trachomatis. Nature of the data set: C. trachomatis infection of HeLa cells (chlamydial inclusions, immunocytochemistry). The settings on record: for IC50: Chlamydia trachomatis, HeLa. The format is cell-based. Here is the method: Chlamydia trachomatis (C. trachomatis) propagation and treatment were carried out as follows. C. trachomatis was propagated in HeLa cells. The titer of C. trachomatis was determined in cyclohexamide-treated HeLa cells, and concentrations used were expressed as inclusion forming units (IFU) per mL.
Assessment of the level of infection was determined as follows. HeLa cells were seeded on glass coverslips in 24-well plates at 3×10^4 cells/well and inoculated with C. trachomatis and then treated with antibiotic (or other compounds of interest). After 48 hours, the infected cells were fixed with 100% methanol and then incubated with anti-Chlamydia monoclonal antibody. Inclusion bodies were visualized by staining with FITC-conjugated secondary antibody and DAPI as counterstaining. The samples were examined by a fluorescence microscopy. Number of inclusions was calculated per 100 cells.
Assessment of antichlamydial activity of Korormicin (Scheme shown in FIG. 1) and PEG-2 (Scheme shown in FIG. 2) were performed as follows. Cells were infected with C. trachomatis and treated with different concentrations of antibiotic of choice. After 48 h of C. trachomatis was collected (P1) and used to infect fresh cells. Subsequent collections of C. trachomatis were used to obtain P2, P3, P4 and P5 stocks of C. trachomatis. Dilution of C. trachomatis used to infect cells after treatment with PEG-2 had to be minimized in order to visualize inclusions. Last passage collection of C. trachomatis (P5) of Korormicin treatment and all collected of passages of C. trachomatis treated with PEG-2 were used to establish infectivity of treated Chlamydia (Scheme shown in FIG. 3).
For MIC50 (Minimal Concentration of the antibiotic that inhibits formation of chlamydial inclusions on 50%) determination HeLa cells were grown in 24-well or 96 well plates overnight prior to chlamydial inoculation. Elementary bodies were applied to the cells in small volume of SPG (0.22 M sucrose, 8.6 mM Na2HPO4, 3.8 mM KH2PO4, 5 mM glutamic acid, 0.2 μm-filtered, pH 7.4) and after 2 hours of incubation unattached elementary bodies were removed and infected cells were treated with different concentration of antibiotics in Dulbecco's modified Eagle's medium (DMEM, Invitrogen) with 5% fetal bovine serum (FBS, Invitrogen) in the presence of cycloheximide (1.0 μg/ml). After 42 h inclusions were visualized by immunocytochemistry.
To determent chlamydicidal effect of Korormicin (Scheme 1) and PEG-2 (Scheme 2) Hela cells were infected with C. trachomatis and treated with different concentrations of antibiotics. After 48 h of C. trachomatis was collected (P1) and used to infect fresh cells. Subsequent collections of C. trachomatis were used to obtain P2, P3, P4 and P5 stocks of C. trachomatis. Dilution of C. trachomatis used to infect cells after treatment with PEG-2 had to be minimized in order to visualize inclusions. (See Scheme 2 below). Last passage collection of C. trachomatis (P5) of Korormicin treatment and all collected of passages of C. trachomatis treated with PEG-2 were used to establish infectivity of treated C. trachomatis. Minimal chlamydicidal concentration (MCC2) for Korormicin, PEG-2 and PEG-2S was calculated after 2 passages of infection with treatment and reflect inhibition of infection for more than 90%. In all experiments inclusions were visualized by immunocytochemistry.
Cells were seeded on glass coverslips in 24-well plates (2-4×10^4 cells/well) or on glass-bottom 96 well plates (10^4 cells/well), and after overnight inoculated with C. trachomatis. After 42 hours, the infected cells were fixed with 90% acetone (or 100% methanol in case of 96 well plates) and then incubated with anti-Chlamydia antibody (Thermo Fisher Scientific). Alexa Fluor 488-conjugated anti-rabbit IgG (Molecular Probes) was used as secondary antibody. DAPI staining solution (300 nM) was added to the coverslips to identify nuclei. […]

For data set [3], the system named is primary Vascular Smooth Muscle cells. Nature of the data set: Cell toxicity / proliferation assay, primary vascular smooth muscle cells. The format is cell-based, human. On the procedure:
(§1) Cell Toxicity Assay was performed as follows. HeLa, HEK293 and primary VSM cells were seeded at 5×10^3 cells/well in 96-well plates and incubated with Korormicin, PEG-2 or homoserine lactones in DMEM containing 1% fetal bovine serum (FBS; Invitrogen Corp.). After 48 hours, the number of living cells was determined by a colorimetric enzyme assay, based on a cytoplasmic enzyme activity present in viable cells.
Cells were seeded at 5×10^3 cells/well in 96-well plates and incubated with C. trachomatis in DMEM containing 1% fetal bovine serum (FBS; Invitrogen Corp.). After 48 hours, the number of living cells was determined by a colorimetric enzyme assay (CellTiter 96 Cell Proliferation Assay; Promega Corporation, Madison, WI) based on a cytoplasmic enzyme activity present in viable cells. (Cory et al. Use of an aqueous soluble tetrazolium/formazan assay for cell growth assays in culture. Cancer Commun. 1991; 3:207-212). The absorbance of a formazan product in tissue culture media was measured at 500 nm using a microplate reader.

Another data set has as its system HeLa cell line. Nature of the data set: Cell toxicity assay, HeLa cells. The format is cell-based, human. Here is the method:
as §1

The nature of another data set: physchem. The format is physicochemical. The settings on record: organic solvent or mixture.
Where [4] appears, read: cell culture experimental model, read-out: IC50(Chl), half-maximal inhibition of the proliferation of Chlamydia trachomatis.

“And” between values parts separate entries of the source, which are not always exact repeats. Equal entries are not always repeated. Where two headings read alike, the source gives them in different places.

As for `CCCCCCCc1cc(O)c2ccccc2[n+]1[O-]` [HQNO, 2-n-heptyl-4-hydroxyquinoline N-oxide], the IC50 at Na^+-NQR [1] was 130 nM. Besides, the Ki at Na^+-NQR [2] (read-out: Ki for Na+-NQR) is 300 nM.

As to `CCCCCCCC[C@H]1O[C@H]1C/C=C/C=C\[C@H](O)CC(=O)NC1=C[C@](C)(CC)OC1=O` [Korormicin, (3R,4Z,6E)-N-[(5S)-5-Ethyl-5-methyl-2-oxo-2,5-dihydro-3-furanyl]-3-hydroxy-8-[(2S,3R)-3-octyl-2-oxiranyl]-4,6-octadienamide], in the data set on Chlamydia trachomatis, the “efficacy against C. trachomatis infection (in words)” value is on record as “effective”. The “number of inclusions, of control” value in the data set with Chlamydia trachomatis (5 consecutive treatments, 15 μM) is 4.8%. For the same compound, the IC50 with Chlamydia trachomatis (read-out: MIC501, Minimal Inhibitory Concentration after the treatment, first treatment) is 8.28 µg/mL; in the data set with Chlamydia trachomatis (read-out: MIC501, Minimal Inhibitory Concentration after the treatment, first treatment, 50% inhibition of inclusion formation), 18000 nM; in the data set on Chlamydia trachomatis (read-out: MIC502, Minimal Inhibitory Concentration after the second treatment, second treatment) it was 10 µM and 4.6 µg/mL. In the data set with Chlamydia trachomatis (cell culture models), the “concentration effective against C. trachomatis” value fell in the range of 10 to 20 µM. Further, the “number of chlamydial inclusions, of control” value in the data set on Chlamydia trachomatis (five consecutive treatments, 20 μM) is “less than 2%”. In data set [3] (VSMC proliferation, 5 to 15 μM), the “lowering of the cell titer” value was about 10%. In data set [3] (primary Vascular Smooth Muscle cells), the “toxicity to primary cells (in words)” value was “toxic”. The inhibition constant Ki was about 0.08 nM on Na^+-NQR [2] (isolated Na+-NQR, listed as korormicin, read-out: inhibitor constant (Ki) of quinone reduction by Na+-NQR); 0.082 nM on Na^+-NQR [2] (isolated Na+-NQR, read-out: inhibitor constant (Ki) of quinone reduction by Na+-NQR); about 0.08 nM at Na^+-NQR [2] (preparations of isolated enzyme, read-out: Ki).

`CCCCCCCCCC(=O)CC(=O)N[C@H]1CCOC1=O` [N-3-oxo-dodecanoyl-L-Homoserine lactone]: the “Cytotoxicity on HeLa cell line” value with HeLa cell line (12.5 μM), with HeLa cell line (25 μM), in the data set with HeLa cell line (50 μM) and with HeLa cell line (100 μM) was “yes” in each case. In addition, in the data set on HeLa cell line (HeLa), the “toxicity to human cells (in words)” value is given as “highly toxic”.

For `CCCC(=O)N[C@H]1CCOC1=O` [N-butyryl-L-Homoserine lactone], the Anti-Chlamydial effect result with Chlamydia trachomatis (12.5 μM) was “no”; with Chlamydia trachomatis (25 μM), “no”; in the data set with Chlamydia trachomatis (50 μM) it was “No”; in the data set with Chlamydia trachomatis (100 μM) it was “no”. The “Cytotoxicity on HeLa cell line” value in the data set with HeLa cell line (12.5 μM), with HeLa cell line (25 μM), with HeLa cell line (50 μM) and in the data set with HeLa cell line (100 μM) was “no” throughout.

In the case of `CCCCCCCCCC(=O)N[C@H]1CCOC1=O` [N-decanoyl-L-Homoserine lactone], the Anti-Chlamydial effect entry in the data set with Chlamydia trachomatis (12.5 μM), in the data set with Chlamydia trachomatis (25 μM), with Chlamydia trachomatis (50 μM) and in the data set with Chlamydia trachomatis (100 μM) was “no” each time. The “Cytotoxicity on HeLa cell line” value in the data set with HeLa cell line (12.5 μM), in the data set with HeLa cell line (25 μM), with HeLa cell line (50 μM) and in the data set with HeLa cell line (100 μM) was “no” each time.

`CCCCCC(=O)N[C@H]1CCOC1=O` [N-hexanoyl-L-Homoserine lactone]: the Anti-Chlamydial effect result in the data set with Chlamydia trachomatis (12.5 μM) was “no”; with Chlamydia trachomatis (25 μM), “no”; with Chlamydia trachomatis (50 μM) it was “No”; with Chlamydia trachomatis (100 μM) it was “no”. Besides, the “Cytotoxicity on HeLa cell line” value with HeLa cell line (12.5 μM), in the data set on HeLa cell line (25 μM), with HeLa cell line (50 μM) and in the data set on HeLa cell line (100 μM) was “no” each time.

As to `CC[C@@]1(C)C=C(NC(=O)C[C@@H](O)/C=C\C=C\CCCCCCN(C)C(=O)OC(C)(C)C)C(=O)O1` [PEG-6(Boc)], in “physchem”, the solubility is over 50 mM. For the same compound, the IC50 with Chlamydia trachomatis (setting [4]) was 960 nM.

Take `CC[C@@]1(C)C=C(NC(=O)C[C@@H](O)/C=C\I)C(=O)O1` [PEG-10]: the solubility in “physchem” is over 50 mM. Also, the IC50 in the data set with Chlamydia trachomatis (setting [4]) is 670 nM.

As to `CCCCCCCCCCC[C@H](O)CC(=O)NC1=C[C@](C)(CC)OC1=O` [PEG-11], in the data set “physchem”, the solubility was over 50 mM. Also, the IC50 in the data set on Chlamydia trachomatis (setting [4]) came to 630 nM.

For `CCCCCCC/C=C/C=C\CCC(=O)NC1=C[C@](C)(CC)OC1=O` [PEG-14], the solubility in the data set “physchem” was over 50 mM. Besides, the IC50 in the data set on Chlamydia trachomatis (setting [4]) came to 1200 nM.
